This note sets out measurements from US11655235B2, “Pyrrolidine and piperidine compounds” (YUHAN CORPORATION, priority 2019, dated 2023).

Assay [1] addresses T1, Recombinant human FAP (Homo sapiens, UniProt Q12884).
T1 construct: purchased R&D systems
T1 sequence (Q12884 1-760): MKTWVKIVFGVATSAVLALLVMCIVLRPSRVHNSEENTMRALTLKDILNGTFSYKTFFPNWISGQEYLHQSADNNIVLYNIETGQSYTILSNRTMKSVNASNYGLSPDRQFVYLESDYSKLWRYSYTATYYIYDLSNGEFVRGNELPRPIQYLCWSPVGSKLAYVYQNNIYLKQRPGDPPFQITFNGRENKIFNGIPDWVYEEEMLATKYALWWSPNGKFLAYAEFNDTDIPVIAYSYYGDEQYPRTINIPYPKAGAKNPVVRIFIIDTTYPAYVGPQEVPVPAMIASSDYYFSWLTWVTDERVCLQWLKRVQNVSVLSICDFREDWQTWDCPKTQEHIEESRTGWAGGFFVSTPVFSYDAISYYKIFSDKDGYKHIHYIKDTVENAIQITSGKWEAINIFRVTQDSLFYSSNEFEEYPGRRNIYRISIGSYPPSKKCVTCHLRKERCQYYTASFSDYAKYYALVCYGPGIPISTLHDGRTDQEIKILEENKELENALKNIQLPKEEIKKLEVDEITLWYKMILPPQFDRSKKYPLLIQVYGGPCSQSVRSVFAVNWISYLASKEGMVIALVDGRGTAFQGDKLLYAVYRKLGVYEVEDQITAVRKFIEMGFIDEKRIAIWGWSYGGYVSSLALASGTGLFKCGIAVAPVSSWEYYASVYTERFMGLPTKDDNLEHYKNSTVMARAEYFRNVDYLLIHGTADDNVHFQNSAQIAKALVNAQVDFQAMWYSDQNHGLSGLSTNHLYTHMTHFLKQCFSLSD
Nature of the assay: FAP inhibition, fluorogenic substrate Z-Gly-Pro-AMC. It is filed as biochemical. The settings on record: for IC50: 25° C., Z-Gly-Pro-AMC substrate; for inhibition at 1 µM: read-out: hFAP inhibition % at 1 μM. As to the method:
The compounds according to the present technology were evaluated in terms of the inhibitory effect on the activity of dipeptidyl peptidases including FAP by using a substrate producing fluorescent substances upon enzymatic decomposition. The test was conducted at 25° C. to get a final reaction volume of 100 μL in a 96 black well plate. […] Briefly, the test compounds were dissolved in dimethyl sulfoxide (DMSO) at a concentration of 20 mM and then subjected to serial dilution, thereby creating an 8 point curve. As for the control group, a 6 point curve created by serial dilution of Talabostat in the same buffer solution was used. Fluorescence intensity was measured using a microplate reader (Flexstation3, Molecular Devices) under the wavelength condition exciting at 380 nm and reading the emission at 460 nm. The inhibitory effect of the test compounds was measured as a decrease (%) in the signal rate as compared to the control group without any inhibitor. Data was fixed to a logistic model with four variables and IC50 value was calculated using GraphPad Prism program. Recombinant human FAP (R&D systems) was diluted with 50 mM tris (pH 7.5) buffer comprising 1 M of sodium chloride and 1 mg/ml of bovine serum albumin (BSA) to be 10 ng per final reaction. The test compounds were subjected to serial dilution in a buffer under the condition containing up to 0.1% of DMSO. Z-Gly-Pro-AMC (Bachem) was used as a substrate. By dissolving in DMSO and then diluting in the same buffer, the substrate was added to be […] per final reaction.

Assay [2] concerns the target DPP4 (Homo sapiens, UniProt P27487). Nature of the assay: DPP4 inhibition, fluorogenic substrate H-Gly-Pro-AMC. The class given is biochemical. Set-up: purchased R&D Systems. The settings on record: for inhibition at 1 µM: read-out: hDPP4 inhibition % at 1 μM. As to the method: The compounds according to the present technology were evaluated in terms of the inhibitory effect on the activity of dipeptidyl peptidases including FAP by using a substrate producing fluorescent substances upon enzymatic decomposition. The test was conducted at 25° C. to get a final reaction volume of 100 μL in a 96 black well plate. […] Briefly, the test compounds were dissolved in dimethyl sulfoxide (DMSO) at a concentration of 20 mM and then subjected to serial dilution, thereby creating an 8 point curve. As for the control group, a 6 point curve created by serial dilution of Talabostat in the same buffer solution was used. Fluorescence intensity was measured using a microplate reader (Flexstation3, Molecular Devices) under the wavelength condition exciting at 380 nm and reading the emission at 460 nm. The inhibitory effect of the test compounds was measured as a decrease (%) in the signal rate as compared to the control group without any inhibitor. Data was fixed to a logistic model with four variables and IC50 value was calculated using GraphPad Prism program. As for recombinant human DPP4 (R&D Systems), 25 mM tris (pH 8.0) buffer as a buffer solution and H-Gly-Pro-AMC (Bachem) as a substrate were used. As for recombinant human DPP7 (R&D Systems), 25 mM MES (pH 6.0) buffer as a buffer solution and Lys-Pro-AMC (Bachem) as a substrate were used. As for recombinant human DPP8 (PBS Bioscience), as a buffer solution, a 10 mM tris (pH 7.4) buffer comprising 10 mM of magnesium chloride and 0.05% of Tween 20, and Z-Ala-Pro-AMC (BPS Bioscience) as a substrate were used. As for recombinant human DPP9 (R&D Systems), a 25 mM tris (pH 8.0) buffer as a buffer solution and H-Gly-Pro-AMC (Bachem) as a substrate were used. As for recombinant human PREP (R&D System), as a buffer solution, a 25 mM tris (pH 7.5) buffer comprising 250 mM sodium chloride and 2.5 mM DTT (Dithiolthreitol), and Z-Gly-Pro-AMC (Bachem) as a substrate were used. The evaluation was made by using 10 ng of DPP4, PDD7, and PREP, 20 ng of DPP8, and 50 ng of DPP9 based on the final reaction. In the evaluation of DPP4, the test compounds were subjected to serial dilution in a buffer under the condition containing up to 0.1% of DMSO. In the evaluation of DPP7, DPP8, DPP9, and PREP, the test compounds were subjected to serial dilution in each buffer under the condition containing up to 0.5% of DMSO.

Each structure is given as a SMILES string.

Sequence of DPP4 (P27487 whole entry): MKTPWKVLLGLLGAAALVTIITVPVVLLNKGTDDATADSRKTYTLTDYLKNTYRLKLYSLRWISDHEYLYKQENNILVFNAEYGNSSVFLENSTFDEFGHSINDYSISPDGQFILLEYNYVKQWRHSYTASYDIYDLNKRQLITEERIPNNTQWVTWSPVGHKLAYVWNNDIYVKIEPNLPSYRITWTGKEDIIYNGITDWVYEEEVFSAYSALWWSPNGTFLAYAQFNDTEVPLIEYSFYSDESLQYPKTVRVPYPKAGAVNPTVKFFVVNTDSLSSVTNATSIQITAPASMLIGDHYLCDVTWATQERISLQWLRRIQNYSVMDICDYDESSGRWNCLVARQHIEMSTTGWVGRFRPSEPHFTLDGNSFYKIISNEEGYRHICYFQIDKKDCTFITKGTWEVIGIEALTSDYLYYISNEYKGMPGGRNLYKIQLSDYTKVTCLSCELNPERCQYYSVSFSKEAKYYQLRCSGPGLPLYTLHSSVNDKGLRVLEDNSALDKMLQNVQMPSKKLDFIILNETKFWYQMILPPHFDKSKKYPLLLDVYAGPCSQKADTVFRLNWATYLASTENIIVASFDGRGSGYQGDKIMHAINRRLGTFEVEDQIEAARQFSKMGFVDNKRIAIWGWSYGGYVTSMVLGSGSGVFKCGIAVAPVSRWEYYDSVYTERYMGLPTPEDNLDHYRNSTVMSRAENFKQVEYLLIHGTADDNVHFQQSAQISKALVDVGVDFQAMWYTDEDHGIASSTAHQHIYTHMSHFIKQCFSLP

On to `N#C[C@@H]1CCCN1C(=O)CN1CC[C@H](Oc2ccc3ncccc3c2)C1` [Example 63, (S)-1-(2-((S)-3-(quinolin-6-yloxy)pyrrolidin-1-yl)acetyl)pyrrolidine-2-carbonitrile], for which the IC50 in assay [1] is 130 nM. In addition, in assay [2], the “hDPP4 inhibition % at 1 μM” value was “No inhibition**”.
`N#C[C@@H]1CCCN1C(=O)CN1CC[C@H](Oc2ccc3c(c2)OCO3)C1` [Example 67, (S)-1-(2-((S)-3-(benzo[d][1,3]dioxol-5-yloxy)pyrrolidin-1-yl)acetyl)pyrrolidine-2-carbonitrile]: the inhibition at 1 µM in assay [1] is 64%. Also, the “hDPP4 inhibition % at 1 μM” value in assay [2] is “No inhibition**”.
Take `N#C[C@@H]1CCCN1C(=O)CN1CC[C@H](Oc2cc3ccccc3cn2)C1` [Example 69, (S)-1-(2-((S)-3-(isoquinolin-3-yloxy)pyrrolidin-1-yl)acetyl)pyrrolidine-2-carbonitrile]: the IC50 in assay [1] came to 64.3 nM. Also, the inhibition at 1 µM in assay [2] was found to be 8%.
For `N#C[C@@H]1CCCN1C(=O)CN1CC[C@H](Oc2nccc3scc(Br)c23)C1` [Example 70, (S)-1-(2-((S)-3-((3-bromothieno[3,2-c]pyridin-4-yl)oxy)pyrrolidin-1-yl)acetyl)pyrrolidine-2-carbonitrile], in that order: 31.9 nM and 22.6%.
In the case of `N#C[C@@H]1CCCN1C(=O)CN1CC[C@H](Oc2ccc(Cl)c3ccccc23)C1` [Example 71, (S)-1-(2-((S)-3-((4-chloronaphthalen-1-yl)oxy)pyrrolidin-1-yl)acetyl)pyrrolidine-2-carbonitrile], the IC50 in assay [1] amounted to 42.6 nM. In addition, the “hDPP4 inhibition % at 1 μM” value in assay [2] is given as “No inhibition**”.
`N#C[C@@H]1CCCN1C(=O)CN1CC[C@H](Oc2ccccc2-c2cc[nH]n2)C1` [Example 72, (S)-1-(2-((S)-3-(2-(1H-pyrazol-3-yl)phenoxy)pyrrolidin-1-yl)acetyl)pyrrolidine-2-carbonitrile]: in assay [1], the IC50 is 101 nM. The inhibition at 1 µM in assay [2] was 0.8%.
In the case of `N#C[C@@H]1CCCN1C(=O)CN1CC[C@H](Oc2cccc3c(Cl)ncnc23)C1` [Example 73, (S)-1-(2-((S)-3-((4-chloroquinazolin-8-yl)oxy)pyrrolidin-1-yl)acetyl)pyrrolidine-2-carbonitrile], the inhibition at 1 µM in assay [1] was 97.1%; in assay [2], 1.2%.
For the molecule `N#C[C@@H]1CCCN1C(=O)CN1CC[C@H](Oc2ccc3ncnc(Cl)c3c2)C1` [Example 74, (S)-1-(2-((S)-3-((4-chloroquinazolin-6-yl)oxy)pyrrolidin-1-yl)acetyl)pyrrolidine-2-carbonitrile], the inhibition at 1 µM in assay [1] stood at 92.3%. The “hDPP4 inhibition % at 1 μM” value in assay [2] is given as “No inhibition**”.
As to `N#C[C@@H]1CCCN1C(=O)CN1CC[C@H](Oc2cccc3c2CCC(=O)N3)C1` [Example 76, (S)-1-(2-((S)-3-((2-oxo-1,2,3,4-tetrahydroquinolin-5-yl)oxy)pyrrolidin-1-yl)acetyl)pyrrolidine-2-carbonitrile], the IC50 in assay [1] worked out at 53.6 nM. Besides, the “hDPP4 inhibition % at 1 μM” value in assay [2] is recorded as “No inhibition**”.
On to `N#C[C@@H]1CCCN1C(=O)CN1CC[C@H](Oc2ccc3c(c2)CCC(=O)N3)C1` [Example 77, (S)-1-(2-((S)-3-((2-oxo-1,2,3,4-tetrahydroquinolin-6-yl)oxy)pyrrolidin-1-yl)acetyl)pyrrolidine-2-carbonitrile], for which, in assay [1], the IC50 came out at 82.3 nM. In addition, in assay [2], the inhibition at 1 µM stood at 0.4%.
Consider `Cc1ccc2cccc(O[C@H]3CCN(CC(=O)N4CCC[C@H]4C#N)C3)c2n1` [Example 78, (S)-1-(2-((S)-3-((2-methylquinolin-8-yl)oxy)pyrrolidin-1-yl)acetyl)pyrrolidine-2-carbonitrile], for which the IC50 in assay [1] turned out to be 22.5 nM. Further, the “hDPP4 inhibition % at 1 μM” value in assay [2] was “No inhibition**”.
As to `N#C[C@@H]1CCCN1C(=O)CN1CC[C@H](Oc2ccnc3cc(Cl)ccc23)C1` [Example 79, (S)-1-(2-((S)-3-((7-chloroquinolin-4-yl)oxy)pyrrolidin-1-yl)acetyl)pyrrolidine-2-carbonitrile], the IC50 in assay [1] came out at 17.9 nM. Also, the inhibition at 1 µM in assay [2] came to 4.6%.
For the molecule `N#C[C@@H]1CCCN1C(=O)CN1CC[C@H](Oc2ccnc3cc(Br)ccc23)C1` [Example 80, (S)-1-(2-((S)-3-((7-bromoquinolin-4-yl)oxy)pyrrolidin-1-yl)acetyl)pyrrolidine-2-carbonitrile], the IC50 in assay [1] was 20.5 nM. Further, the inhibition at 1 µM in assay [2] is 5.1%.
In the case of `N#C[C@@H]1CCCN1C(=O)CN1CC[C@H](Oc2cccc(-c3ccccc3)c2)C1` [Example 82, (S)-1-(2-((S)-3-([1,1′-biphenyl]-3-yloxy)pyrrolidin-1-yl)acetyl)pyrrolidine-2-carbonitrile], the results for the inhibition at 1 µM in assay [1] and in assay [2] were 72.6% and 6.5%, respectively.
For `N#C[C@@H]1CCCN1C(=O)CN1CC[C@H](Oc2ccc(-c3ccccc3)cc2)C1` [Example 83, (S)-1-(2-((S)-3-([1,1′-biphenyl]-4-yloxy)pyrrolidin-1-yl)acetyl)pyrrolidine-2-carbonitrile], in that order: 68.1% and 6.3%.
As for `N#C[C@@H]1CCCN1C(=O)CN1CC[C@H](Oc2ccnc3c(F)c(F)ccc23)C1` [Example 85, (S)-1-(2-((S)-3-((7,8-difluoroquinolin-4-yl)oxy)pyrrolidin-1-yl)acetyl)pyrrolidine-2-carbonitrile], the IC50 in assay [1] was determined as 19.9 nM. In addition, the inhibition at 1 µM in assay [2] amounted to 5.9%.
Take `COC(=O)C1Cc2ccc(O[C@H]3CCN(CC(=O)N4CCC[C@H]4C#N)C3)cc2O1` (stereo partly drawn) [Example 86, Methyl 6-(((S)-1-(2-((S)-2-cyanopyrrolidin-1-yl)-2-oxoethyl)pyrrolidin-3-yl)oxy)-2,3-dihydrobenzofuran-2-carboxylate]: the inhibition at 1 µM in assay [1] turned out to be 70.7%; in assay [2], 6.8%.
On the same counts, the results for `N#C[C@@H]1CCCN1C(=O)CN1CC[C@H](Oc2ccc(Oc3ccccc3)cc2)C1` [Example 87, (S)-1-(2-((S)-3-(4-phenoxyphenoxy)pyrrolidin-1-yl)acetyl)pyrrolidine-2-carbonitrile] are 51.9% and 6.9%.
